As a reminder, the IC50 is the point on the concentration scale where inhibition reaches its midpoint.

Molecules are shown by their SMILES.

Common to all, as to experiment: Demethylase AlphaScreen Assay
Common to all, as to details: pH 7.5
A general note: In Alpha technology, singlet oxygen from a donor bead excites a nearby acceptor bead.

Experiment [1] addresses T1, Lysine-specific demethylase 5A [1-801] (Homo sapiens, UniProt P29375).
T1 construct: 1-801
T1 sequence (P29375 whole entry): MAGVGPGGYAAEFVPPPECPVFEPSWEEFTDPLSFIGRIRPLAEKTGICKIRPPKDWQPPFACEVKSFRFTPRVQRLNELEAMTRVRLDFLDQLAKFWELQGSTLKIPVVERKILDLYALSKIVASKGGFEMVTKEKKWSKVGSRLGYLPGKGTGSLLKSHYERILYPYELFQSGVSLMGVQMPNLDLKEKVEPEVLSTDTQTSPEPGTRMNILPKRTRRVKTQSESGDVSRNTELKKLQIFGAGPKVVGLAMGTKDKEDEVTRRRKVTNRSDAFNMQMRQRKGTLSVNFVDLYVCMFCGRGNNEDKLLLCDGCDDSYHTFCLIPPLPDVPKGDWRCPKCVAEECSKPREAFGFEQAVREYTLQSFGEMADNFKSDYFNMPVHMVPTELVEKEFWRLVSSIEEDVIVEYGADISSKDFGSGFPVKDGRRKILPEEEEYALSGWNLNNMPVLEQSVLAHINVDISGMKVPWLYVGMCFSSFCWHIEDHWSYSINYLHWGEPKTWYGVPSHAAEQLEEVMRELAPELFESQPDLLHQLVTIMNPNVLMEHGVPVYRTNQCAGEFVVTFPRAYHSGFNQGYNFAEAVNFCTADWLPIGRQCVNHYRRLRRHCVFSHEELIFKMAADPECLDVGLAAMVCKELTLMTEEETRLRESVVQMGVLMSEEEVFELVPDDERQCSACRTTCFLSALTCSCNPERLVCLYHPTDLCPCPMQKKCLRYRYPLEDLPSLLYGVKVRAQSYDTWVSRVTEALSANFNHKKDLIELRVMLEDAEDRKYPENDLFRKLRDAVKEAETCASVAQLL
The method, then: (§1) The demethylase AlphaScreen assay was performed in 384-well plate format using white proxiplates (PerkinElmer), and transfer of compound (100 nl) was performed using an ECHO 550 acoustic dispenser (Labcyte). […] All subsequent steps were carried out in assay buffer (50 mM HEPES, pH 7.5, 0.1% (wt/vol) BSA and 0.01% (vol/vol) Tween-20). In brief, 5 μl of assay buffer containing demethylase enzyme at 2× final assay concentration (see Supplementary Table 3c for assay specifics) was preincubated for 15 min with dilutions of compound.

For experiment [2], the target named is Lysine-specific demethylase 5B (Homo sapiens, UniProt Q9UGL1). On the procedure: as §1
Chain of Lysine-specific demethylase 5B (Q9UGL1 whole entry): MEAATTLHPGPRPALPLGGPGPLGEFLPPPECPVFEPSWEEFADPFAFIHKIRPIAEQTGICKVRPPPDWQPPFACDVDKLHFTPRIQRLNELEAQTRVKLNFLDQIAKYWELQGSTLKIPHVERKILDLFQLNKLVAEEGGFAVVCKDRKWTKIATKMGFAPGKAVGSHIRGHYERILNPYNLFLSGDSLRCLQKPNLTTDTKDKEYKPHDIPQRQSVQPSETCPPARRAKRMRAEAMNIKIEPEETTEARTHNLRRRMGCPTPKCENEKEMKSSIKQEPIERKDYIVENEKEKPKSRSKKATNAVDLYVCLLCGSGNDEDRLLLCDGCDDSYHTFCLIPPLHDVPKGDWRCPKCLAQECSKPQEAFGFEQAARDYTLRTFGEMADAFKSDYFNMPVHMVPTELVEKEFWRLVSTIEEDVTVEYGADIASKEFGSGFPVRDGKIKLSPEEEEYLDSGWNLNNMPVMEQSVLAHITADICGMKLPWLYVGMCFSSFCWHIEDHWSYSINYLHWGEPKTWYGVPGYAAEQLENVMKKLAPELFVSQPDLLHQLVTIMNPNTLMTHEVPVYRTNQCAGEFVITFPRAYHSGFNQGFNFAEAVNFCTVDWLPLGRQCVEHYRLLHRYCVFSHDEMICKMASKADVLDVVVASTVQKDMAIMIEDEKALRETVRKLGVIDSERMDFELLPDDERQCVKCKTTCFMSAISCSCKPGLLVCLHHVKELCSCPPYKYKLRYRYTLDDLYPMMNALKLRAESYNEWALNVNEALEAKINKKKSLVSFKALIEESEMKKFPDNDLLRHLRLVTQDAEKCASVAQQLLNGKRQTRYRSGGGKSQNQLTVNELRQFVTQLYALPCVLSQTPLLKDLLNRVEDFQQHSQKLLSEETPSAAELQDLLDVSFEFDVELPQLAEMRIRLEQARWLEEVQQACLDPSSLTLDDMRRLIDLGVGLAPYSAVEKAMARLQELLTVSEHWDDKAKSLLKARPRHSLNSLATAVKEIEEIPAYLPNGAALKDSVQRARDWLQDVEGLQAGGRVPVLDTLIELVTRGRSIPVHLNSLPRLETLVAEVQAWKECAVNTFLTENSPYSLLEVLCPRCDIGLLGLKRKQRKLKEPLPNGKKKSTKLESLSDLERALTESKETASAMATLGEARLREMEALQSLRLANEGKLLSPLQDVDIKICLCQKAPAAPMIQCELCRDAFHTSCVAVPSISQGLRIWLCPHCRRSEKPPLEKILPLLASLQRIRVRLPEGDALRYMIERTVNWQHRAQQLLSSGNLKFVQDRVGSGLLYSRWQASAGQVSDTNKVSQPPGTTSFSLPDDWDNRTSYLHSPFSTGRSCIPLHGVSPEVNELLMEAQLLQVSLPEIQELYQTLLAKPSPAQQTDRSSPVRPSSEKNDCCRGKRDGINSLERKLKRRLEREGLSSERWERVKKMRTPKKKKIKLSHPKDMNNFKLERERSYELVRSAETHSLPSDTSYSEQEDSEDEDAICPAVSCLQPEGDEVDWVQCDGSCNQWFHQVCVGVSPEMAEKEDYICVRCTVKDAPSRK
Experiment [3] concerns the target T2, Lysine-specific demethylase 5D [1-775] (Homo sapiens, UniProt Q9BY66).
T2 construct: 1-775
The method, then:
as §1

The target of experiment [4] is T3, Lysine-specific demethylase 4C (Homo sapiens, UniProt Q9H3R0).
T3 sequence (Q9H3R0 whole entry): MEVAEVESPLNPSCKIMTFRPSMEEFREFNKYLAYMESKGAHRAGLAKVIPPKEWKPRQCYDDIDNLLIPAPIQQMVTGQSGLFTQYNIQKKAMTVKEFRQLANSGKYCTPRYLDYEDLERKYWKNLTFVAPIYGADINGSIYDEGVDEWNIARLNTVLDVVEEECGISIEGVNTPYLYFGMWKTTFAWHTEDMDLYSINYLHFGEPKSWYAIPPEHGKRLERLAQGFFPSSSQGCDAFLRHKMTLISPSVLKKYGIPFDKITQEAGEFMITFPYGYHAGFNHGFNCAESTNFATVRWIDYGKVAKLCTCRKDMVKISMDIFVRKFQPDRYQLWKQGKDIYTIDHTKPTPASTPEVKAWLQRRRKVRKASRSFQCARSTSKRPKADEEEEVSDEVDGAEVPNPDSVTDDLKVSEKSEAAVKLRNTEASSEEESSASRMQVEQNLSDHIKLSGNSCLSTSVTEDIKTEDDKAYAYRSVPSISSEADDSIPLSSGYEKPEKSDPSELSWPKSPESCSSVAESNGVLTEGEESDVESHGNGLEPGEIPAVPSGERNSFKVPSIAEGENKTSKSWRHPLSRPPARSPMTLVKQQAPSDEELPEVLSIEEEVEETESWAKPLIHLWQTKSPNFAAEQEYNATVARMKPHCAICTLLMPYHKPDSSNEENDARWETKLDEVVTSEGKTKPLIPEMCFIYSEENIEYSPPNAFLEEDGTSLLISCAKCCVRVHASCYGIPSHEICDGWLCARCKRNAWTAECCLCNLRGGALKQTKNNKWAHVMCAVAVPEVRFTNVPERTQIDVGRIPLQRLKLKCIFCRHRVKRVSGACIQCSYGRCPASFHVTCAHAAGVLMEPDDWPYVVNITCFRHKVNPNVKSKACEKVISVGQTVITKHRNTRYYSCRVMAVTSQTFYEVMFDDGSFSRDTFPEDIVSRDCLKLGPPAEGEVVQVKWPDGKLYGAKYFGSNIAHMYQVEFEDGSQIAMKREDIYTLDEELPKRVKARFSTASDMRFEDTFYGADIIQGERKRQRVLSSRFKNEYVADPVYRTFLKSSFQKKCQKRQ
The method, then:
as §1

In experiment [5] the target is T4, Lysine-specific demethylase 3A (Homo sapiens, UniProt Q9Y4C1).
T4 sequence (Q9Y4C1 whole entry): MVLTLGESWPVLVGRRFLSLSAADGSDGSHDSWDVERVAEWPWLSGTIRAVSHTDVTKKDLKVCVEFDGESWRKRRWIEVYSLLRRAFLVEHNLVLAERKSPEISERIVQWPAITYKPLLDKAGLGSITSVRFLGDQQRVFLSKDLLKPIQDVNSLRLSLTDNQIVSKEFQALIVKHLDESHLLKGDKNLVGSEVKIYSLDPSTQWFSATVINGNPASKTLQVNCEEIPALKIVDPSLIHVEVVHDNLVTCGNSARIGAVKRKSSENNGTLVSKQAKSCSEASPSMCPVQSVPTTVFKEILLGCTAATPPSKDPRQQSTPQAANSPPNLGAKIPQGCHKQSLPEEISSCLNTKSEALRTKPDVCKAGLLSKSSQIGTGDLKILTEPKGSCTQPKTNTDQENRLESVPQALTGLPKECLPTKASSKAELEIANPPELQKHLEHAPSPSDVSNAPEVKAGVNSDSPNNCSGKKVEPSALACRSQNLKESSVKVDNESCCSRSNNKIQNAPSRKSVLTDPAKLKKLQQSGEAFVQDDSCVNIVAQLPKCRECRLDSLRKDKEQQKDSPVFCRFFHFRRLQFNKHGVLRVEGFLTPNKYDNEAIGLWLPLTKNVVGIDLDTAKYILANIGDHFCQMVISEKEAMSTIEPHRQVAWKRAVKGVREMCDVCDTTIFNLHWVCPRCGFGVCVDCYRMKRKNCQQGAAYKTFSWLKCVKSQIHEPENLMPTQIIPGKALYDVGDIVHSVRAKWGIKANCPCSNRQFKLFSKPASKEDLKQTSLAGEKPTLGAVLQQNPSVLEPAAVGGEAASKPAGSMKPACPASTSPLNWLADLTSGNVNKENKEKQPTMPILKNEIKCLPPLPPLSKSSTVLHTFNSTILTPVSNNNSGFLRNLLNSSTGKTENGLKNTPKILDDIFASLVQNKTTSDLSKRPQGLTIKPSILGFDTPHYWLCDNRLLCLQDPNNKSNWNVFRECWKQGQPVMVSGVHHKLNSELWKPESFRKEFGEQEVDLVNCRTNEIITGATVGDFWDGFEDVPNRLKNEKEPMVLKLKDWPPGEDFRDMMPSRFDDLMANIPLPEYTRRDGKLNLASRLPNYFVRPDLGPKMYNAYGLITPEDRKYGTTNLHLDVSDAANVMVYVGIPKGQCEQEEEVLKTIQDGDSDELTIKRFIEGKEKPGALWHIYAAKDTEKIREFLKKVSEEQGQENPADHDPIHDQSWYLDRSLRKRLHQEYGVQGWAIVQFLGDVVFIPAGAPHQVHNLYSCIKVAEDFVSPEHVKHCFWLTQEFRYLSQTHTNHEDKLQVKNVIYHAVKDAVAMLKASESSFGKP
On the procedure:
as §1

For experiment [6], the target named is T5, Lysine-specific demethylase 5C [1-765] (Homo sapiens, UniProt P41229).
T5 construct: 1-765
T5 sequence (P41229 whole entry): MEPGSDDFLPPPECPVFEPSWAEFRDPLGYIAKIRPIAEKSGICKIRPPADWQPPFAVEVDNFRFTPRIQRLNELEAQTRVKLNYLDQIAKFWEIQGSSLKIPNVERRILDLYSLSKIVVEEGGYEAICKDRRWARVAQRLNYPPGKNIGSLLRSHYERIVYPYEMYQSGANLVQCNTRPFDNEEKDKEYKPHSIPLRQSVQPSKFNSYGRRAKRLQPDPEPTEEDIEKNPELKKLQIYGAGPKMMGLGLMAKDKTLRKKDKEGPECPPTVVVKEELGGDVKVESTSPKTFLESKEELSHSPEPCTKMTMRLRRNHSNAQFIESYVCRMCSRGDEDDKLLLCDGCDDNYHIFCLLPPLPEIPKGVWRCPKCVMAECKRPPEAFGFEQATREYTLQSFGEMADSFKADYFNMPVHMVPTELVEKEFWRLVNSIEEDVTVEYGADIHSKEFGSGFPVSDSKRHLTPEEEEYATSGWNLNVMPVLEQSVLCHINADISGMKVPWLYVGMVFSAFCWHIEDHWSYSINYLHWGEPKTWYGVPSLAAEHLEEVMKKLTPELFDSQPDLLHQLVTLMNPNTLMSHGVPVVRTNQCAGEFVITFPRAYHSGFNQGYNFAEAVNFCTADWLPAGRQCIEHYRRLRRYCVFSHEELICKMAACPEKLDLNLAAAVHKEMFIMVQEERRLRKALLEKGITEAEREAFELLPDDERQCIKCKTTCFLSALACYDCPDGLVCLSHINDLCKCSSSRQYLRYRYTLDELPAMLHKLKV
The method, then: as §1

Experiment [7] concerns the target T6, Lysine-specific demethylase 2A (Homo sapiens, UniProt Q9Y2K7).
T6 sequence (Q9Y2K7 whole entry): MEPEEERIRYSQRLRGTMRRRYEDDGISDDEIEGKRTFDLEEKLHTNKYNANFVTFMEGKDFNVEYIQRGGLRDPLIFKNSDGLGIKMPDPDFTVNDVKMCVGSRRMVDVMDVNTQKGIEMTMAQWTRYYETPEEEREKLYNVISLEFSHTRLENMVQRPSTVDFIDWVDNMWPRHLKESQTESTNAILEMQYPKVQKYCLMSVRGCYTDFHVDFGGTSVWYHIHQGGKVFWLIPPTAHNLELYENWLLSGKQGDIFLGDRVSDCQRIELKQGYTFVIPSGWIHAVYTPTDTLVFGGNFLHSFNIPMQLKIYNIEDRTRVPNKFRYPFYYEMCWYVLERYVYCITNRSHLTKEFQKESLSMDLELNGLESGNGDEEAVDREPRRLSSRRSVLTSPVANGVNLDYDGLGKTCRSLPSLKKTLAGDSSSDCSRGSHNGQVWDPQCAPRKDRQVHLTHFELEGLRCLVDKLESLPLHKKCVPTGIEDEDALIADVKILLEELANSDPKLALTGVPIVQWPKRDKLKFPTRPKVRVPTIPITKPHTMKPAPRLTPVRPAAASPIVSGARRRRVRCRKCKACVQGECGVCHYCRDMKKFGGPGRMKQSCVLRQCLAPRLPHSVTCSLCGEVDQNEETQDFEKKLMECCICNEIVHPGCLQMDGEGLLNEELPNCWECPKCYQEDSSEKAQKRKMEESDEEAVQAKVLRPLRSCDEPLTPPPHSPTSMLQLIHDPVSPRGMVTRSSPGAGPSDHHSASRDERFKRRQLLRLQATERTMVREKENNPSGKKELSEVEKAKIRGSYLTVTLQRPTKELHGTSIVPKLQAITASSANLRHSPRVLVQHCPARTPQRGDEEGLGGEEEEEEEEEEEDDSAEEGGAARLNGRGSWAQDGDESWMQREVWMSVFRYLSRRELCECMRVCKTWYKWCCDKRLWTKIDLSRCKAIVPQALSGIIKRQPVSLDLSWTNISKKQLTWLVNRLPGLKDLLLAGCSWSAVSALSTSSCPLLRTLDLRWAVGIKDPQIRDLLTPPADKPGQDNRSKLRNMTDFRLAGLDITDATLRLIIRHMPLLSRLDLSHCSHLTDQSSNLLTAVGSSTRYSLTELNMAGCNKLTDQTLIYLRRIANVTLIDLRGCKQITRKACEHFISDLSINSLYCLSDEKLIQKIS
On the procedure:
as §1

Experiment [8] concerns the target Lysine-specific demethylase 6B (Homo sapiens, UniProt O15054). On the procedure: as §1

T2 sequence (Q9BY66 1-775): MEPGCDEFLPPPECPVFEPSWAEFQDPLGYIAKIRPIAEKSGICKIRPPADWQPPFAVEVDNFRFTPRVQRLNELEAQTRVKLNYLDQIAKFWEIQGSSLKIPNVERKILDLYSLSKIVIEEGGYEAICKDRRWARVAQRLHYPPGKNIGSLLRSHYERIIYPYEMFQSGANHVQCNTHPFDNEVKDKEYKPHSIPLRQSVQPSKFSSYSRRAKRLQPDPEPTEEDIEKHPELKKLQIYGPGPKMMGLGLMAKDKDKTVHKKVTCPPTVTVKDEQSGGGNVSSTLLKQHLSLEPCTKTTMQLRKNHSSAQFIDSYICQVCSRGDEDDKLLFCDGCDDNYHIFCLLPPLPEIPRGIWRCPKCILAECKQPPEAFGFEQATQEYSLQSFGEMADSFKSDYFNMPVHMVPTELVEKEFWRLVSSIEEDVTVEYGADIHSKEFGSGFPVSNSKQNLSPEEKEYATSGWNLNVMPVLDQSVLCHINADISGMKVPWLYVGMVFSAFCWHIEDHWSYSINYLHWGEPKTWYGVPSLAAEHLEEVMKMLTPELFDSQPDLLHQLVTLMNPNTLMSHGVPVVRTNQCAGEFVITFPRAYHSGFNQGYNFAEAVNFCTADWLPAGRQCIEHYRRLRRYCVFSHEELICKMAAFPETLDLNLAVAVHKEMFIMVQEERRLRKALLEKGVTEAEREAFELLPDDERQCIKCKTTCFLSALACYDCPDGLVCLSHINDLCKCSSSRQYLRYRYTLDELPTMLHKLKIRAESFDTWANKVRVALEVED
Chain of Lysine-specific demethylase 6B (O15054 whole entry): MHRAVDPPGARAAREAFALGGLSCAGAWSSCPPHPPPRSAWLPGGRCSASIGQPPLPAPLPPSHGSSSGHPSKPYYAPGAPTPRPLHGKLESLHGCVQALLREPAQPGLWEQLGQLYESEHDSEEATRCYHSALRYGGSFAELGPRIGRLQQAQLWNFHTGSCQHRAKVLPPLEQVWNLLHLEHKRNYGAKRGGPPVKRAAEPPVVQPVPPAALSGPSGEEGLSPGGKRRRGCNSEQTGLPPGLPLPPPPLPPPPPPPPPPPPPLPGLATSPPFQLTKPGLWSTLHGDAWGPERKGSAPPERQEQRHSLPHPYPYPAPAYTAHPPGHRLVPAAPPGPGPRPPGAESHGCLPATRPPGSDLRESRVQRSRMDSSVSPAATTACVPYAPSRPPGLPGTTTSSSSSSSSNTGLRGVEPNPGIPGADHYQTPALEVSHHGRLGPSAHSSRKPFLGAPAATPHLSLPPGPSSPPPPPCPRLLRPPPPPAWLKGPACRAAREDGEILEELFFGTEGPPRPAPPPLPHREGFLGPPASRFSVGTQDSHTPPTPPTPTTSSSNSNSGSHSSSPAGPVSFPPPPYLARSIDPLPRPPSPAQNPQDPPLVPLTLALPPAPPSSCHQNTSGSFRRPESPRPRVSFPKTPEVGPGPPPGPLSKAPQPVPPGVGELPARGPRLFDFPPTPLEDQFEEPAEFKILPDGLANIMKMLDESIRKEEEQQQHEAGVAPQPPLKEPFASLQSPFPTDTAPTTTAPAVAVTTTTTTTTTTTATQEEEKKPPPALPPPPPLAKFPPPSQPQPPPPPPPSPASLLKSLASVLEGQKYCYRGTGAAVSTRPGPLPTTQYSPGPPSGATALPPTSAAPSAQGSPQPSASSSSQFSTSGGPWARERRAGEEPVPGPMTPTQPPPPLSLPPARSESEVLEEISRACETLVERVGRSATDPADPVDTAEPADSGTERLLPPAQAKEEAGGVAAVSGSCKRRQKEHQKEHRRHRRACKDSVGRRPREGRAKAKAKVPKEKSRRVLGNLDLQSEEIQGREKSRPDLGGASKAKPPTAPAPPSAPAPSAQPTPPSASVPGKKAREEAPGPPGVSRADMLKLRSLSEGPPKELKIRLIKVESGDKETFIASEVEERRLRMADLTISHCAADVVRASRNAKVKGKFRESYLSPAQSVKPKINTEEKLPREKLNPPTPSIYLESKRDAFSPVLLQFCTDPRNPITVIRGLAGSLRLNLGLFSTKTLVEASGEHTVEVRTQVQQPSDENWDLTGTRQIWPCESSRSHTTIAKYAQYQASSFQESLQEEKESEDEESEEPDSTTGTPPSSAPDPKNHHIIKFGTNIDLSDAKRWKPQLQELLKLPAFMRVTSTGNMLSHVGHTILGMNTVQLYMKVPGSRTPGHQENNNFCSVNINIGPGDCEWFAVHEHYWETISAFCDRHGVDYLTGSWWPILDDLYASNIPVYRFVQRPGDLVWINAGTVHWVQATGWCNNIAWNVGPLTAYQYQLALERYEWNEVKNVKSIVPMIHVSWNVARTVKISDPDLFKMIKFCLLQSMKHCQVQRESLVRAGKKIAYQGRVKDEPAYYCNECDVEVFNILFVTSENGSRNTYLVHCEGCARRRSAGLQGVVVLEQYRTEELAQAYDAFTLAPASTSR

For `O=C(O)CNC(=O)C(=O)O`, the 50% inhibitory concentration (IC50) in experiment [1] was 6900 nM; in experiment [2] it was 24500 nM; in experiment [3], 5800 nM; in experiment [4], 41.5 µM.
For the molecule `O=c1[nH]c(Oc2cnn(Cc3ccccc3)c2)nc2cnccc12` [GSK467], the IC50 in experiment [5] is 33.9 µM; in experiment [1], 24 nM; in experiment [2], 26 nM; in experiment [6], 65 nM; in experiment [3] it was 77 nM; in experiment [4], 5.1 µM.
For `O=C(O)CCNc1cc(N2CCc3ccccc3CC2)nc(-c2ccccn2)n1` [GSK-J1], the IC50 in experiment [1] was 3900 nM; in experiment [2], 550 nM; in experiment [6], 1500 nM; in experiment [3], 1500 nM; in experiment [4] it was 64.9 µM.
`CCN(CCN(C)C)C(=O)CNCc1cc(C(=O)O)ccn1` [KDOAM-20]: the half-maximal inhibitory concentration (IC50) worked out at 0.78 µM in experiment [5]; 7 nM in experiment [1]; 2200 nM in experiment [7]; 4 nM in experiment [2]; 13 nM in experiment [6]; 1400 nM in experiment [8]. Moreover, the IC50 was determined as 15 nM in experiment [3] and 0.21 µM in experiment [4].
Regarding `O=C(O)c1ccnc(C(=O)O)c1` [pyridine-2,4-dicarboxylic acid], the IC50 in experiment [1] stood at 1300 nM; in experiment [3], 2500 nM.

The record behind these values is BindingDB's records for doi:10.1038/nchembio.2087 (University of Oxford, 2016).
